What was measured:
Assay type in all cases: cell-based; call rule not given here
[1] = Cytotoxicity against human HepG2/DOX cells assessed as reduction in cell viability at 10 uM measured after 48 hrs by MTT assay
[2] = Cytotoxicity against human MCF7/ADM cells assessed as reduction in cell viability at 10 uM measured after 48 hrs by MTT assay
[3] = target: T1, ATP-dependent translocase ABCB1 (Homo sapiens, UniProt P08183); test: Reversal of P-gp mediated multidrug resistance in human MCF7/ADM cells assessed as potentiation of doxorubicin-induced cell growth inhibition at 10 uM measured after 48 hrs by MTT assay
[4] = target: T1, ATP-dependent translocase ABCB1; test: Reversal of P-gp mediated multidrug resistance in human HepG2/Dox cells assessed as potentiation of doxorubicin-induced cell growth inhibition at 10 uM measured after 48 hrs by MTT assay (reference value: 24%)
[5] = target: T1, ATP-dependent translocase ABCB1; test: Reversal of P-gp mediated multidrug resistance in human MCF7/ADM cells assessed as potentiation of doxorubicin-induced cell growth inhibition at 10 uM measured after 48 hrs by MTT assay (reference value: 5%)
[6] = target: T1, ATP-dependent translocase ABCB1; test: Reversal of P-gp mediated multidrug resistance in human HepG2/Dox cells assessed as potentiation of doxorubicin-induced cell growth inhibition at 10 uM measured after 48 hrs by MTT assay

T1 sequence (P08183 whole entry): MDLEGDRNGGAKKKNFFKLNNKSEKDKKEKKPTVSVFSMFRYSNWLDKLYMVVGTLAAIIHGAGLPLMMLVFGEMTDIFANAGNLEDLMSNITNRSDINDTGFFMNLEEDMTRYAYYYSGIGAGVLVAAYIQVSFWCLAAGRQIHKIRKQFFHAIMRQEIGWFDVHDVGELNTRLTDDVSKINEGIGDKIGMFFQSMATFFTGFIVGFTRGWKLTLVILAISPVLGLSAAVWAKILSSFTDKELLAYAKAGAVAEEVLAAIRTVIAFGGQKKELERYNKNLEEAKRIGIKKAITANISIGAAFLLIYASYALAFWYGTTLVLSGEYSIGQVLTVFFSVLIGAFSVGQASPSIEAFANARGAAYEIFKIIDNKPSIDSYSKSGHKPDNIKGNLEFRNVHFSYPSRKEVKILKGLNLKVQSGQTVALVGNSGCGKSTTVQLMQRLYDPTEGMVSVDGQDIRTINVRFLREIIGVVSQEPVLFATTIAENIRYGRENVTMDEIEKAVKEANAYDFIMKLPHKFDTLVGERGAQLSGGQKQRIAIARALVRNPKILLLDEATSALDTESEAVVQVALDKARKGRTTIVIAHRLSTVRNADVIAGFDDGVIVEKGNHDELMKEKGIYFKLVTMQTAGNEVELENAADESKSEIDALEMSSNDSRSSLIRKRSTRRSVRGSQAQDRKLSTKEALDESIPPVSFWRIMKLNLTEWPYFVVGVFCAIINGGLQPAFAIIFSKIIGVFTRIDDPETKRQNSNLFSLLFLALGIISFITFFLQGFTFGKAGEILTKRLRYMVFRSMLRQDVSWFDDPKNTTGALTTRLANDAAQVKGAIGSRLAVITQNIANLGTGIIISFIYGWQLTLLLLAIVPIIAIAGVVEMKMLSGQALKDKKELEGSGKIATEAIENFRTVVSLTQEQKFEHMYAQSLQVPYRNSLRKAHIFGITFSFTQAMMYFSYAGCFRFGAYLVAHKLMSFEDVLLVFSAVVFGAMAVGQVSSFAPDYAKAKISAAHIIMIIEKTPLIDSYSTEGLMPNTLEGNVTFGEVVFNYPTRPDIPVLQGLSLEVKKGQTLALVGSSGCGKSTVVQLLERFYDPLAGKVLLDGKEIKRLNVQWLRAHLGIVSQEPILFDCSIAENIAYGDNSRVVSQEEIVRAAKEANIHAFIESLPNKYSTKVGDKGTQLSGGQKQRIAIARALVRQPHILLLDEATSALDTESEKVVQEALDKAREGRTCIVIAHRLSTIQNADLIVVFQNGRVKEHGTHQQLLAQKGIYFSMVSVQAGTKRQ

Row | Structure (SMILES) | Activity [1] | Activity [2] | inhibition (INH) [3] | inhibition at 10 µM [4] [%] | inhibition at 10 µM [5] [%] | inhibition (INH) [6]
1 | CCCN(C(=O)CCCCCC(=O)N(CCC)[C@H]1CC2=CC(=O)O[C@]23C[C@H]1N1CCCC[C@H]13)[C@H]1CC2=CC(=O)O[C@]23C[C@H]1N1CCCC[C@H]13 | Toxic | Toxic | – | – | – | –
2 | CCCN(C(=O)CCCCC(=O)N(CCC)[C@H]1CC2=CC(=O)O[C@@]23C[C@@H]1N1CCCC[C@@H]13)[C@H]1CC2=CC(=O)O[C@@]23C[C@@H]1N1CCCC[C@@H]13 | – | – | Not Active | 79 | – | –
3 | CCCN(C(=O)CCCCCC(=O)N(CCC)[C@H]1CC2=CC(=O)O[C@@]23C[C@@H]1N1CCCC[C@@H]13)[C@H]1CC2=CC(=O)O[C@@]23C[C@@H]1N1CCCC[C@@H]13 | Toxic | Toxic | – | 78 | 84 | –
4 | CCCN(C(=O)CCCCCCCCC(=O)N(CCC)[C@H]1CC2=CC(=O)O[C@]23C[C@H]1N1CCCC[C@H]13)[C@H]1CC2=CC(=O)O[C@]23C[C@H]1N1CCCC[C@H]13 | Toxic | Toxic | Active | – | – | Active
5 | CCCN(C(=O)CCCCC(=O)N(CCC)[C@H]1CC2=CC(=O)O[C@]23C[C@H]1N1CCCC[C@H]13)[C@H]1CC2=CC(=O)O[C@]23C[C@H]1N1CCCC[C@H]13 | Toxic | Toxic | Active | – | – | Active

— ChEMBL document CHEMBL4311985, “Novel virosecurinine bivalent mimetics as potent reversal agents against P-glycoprotein-mediated multidrug resistance” (Eur J Med Chem, 2019)
